Experiments:
[1] = tested on: TNFα; test: TNFα production in neuron-glia cultures of PHOX+/+ and PHOX−/− mice; format: cell-based, mouse; conditions: LPS 5 ng/ml
Description: (§1) Neurotoxicity was assessed by DA uptake as described in Example 1. TNFα production was measured by ELISA and iROS was determined by DCFDA as in Example 5. Results are expressed as a percentage of the control culture in FIG. 7A, pg/ml in FIG. 7B, and difference from control in FIG. 7C, respectively, and are the mean±S.E.M. of five individual experiments with triplicates in each experiment. *, P<0.05 compared with LPS culture.
(§2) The rat and mouse ventral mesencephalic neuron-glia cultures were prepared as in Example 1. […] DA neurotoxicity was measured by using the [^3H] DA uptake assay as in Example 1. The data are expressed as the percent of the control cultures and are the mean±SEM. The release of TNFα was measured with a commercially available enzyme-linked immunosorbent assay kit. *P<0.05, **P<0.01, compared to control. The amount of TNFα was measured as in Example 2.

[2] = tested on: intracellular reactive oxygen species; test: Intracellular ROS (DCFH oxidation) after LPS; format: cell-based, rat; conditions: 10^−14 M, enriched-microglia cultures, LPS 10 ng/ml
Description: The production of intracellular reactive oxygen species was measured by DCFH oxidation. The DCFH-DA (Molecular Probes, Eugene, Oreg.) reagent passively diffuses into cells in which it is hydrolyzed by intracellular esterase to liberate 2′-7′-dichlorofluoressein which, during reaction with oxidizing species, yields a highly fluorescent compound 2′-7′-dichlorofluorescein (DCF) that is trapped inside the cell. For each measurement, a fresh stock solution of CM-H2-DCFDA (5 mM) was prepared in dimethylsulfoxide. CM-H2-DCFDA, diluted to a final concentration of 1 μM in phenol red-free HBSS containing 2% FBS and 2% HS, was added to cultures and incubated for about 30 min at about 37° C. After washing two times with warm HBSS, vehicle or stimulators in HBSS were added to cultures. After incubation for about 30 min at about 37° C., fluorescence intensity was measured at 485 nm for excitation and 530 nm for emission using a SpectraMax Gemini XS fluorescence microplate reader (Molecular Devices).
Assay of intracellular ROS is performed as follows. 5-(and −6)-Chloromethyl-2′,7′-dichlorodihydrofluorescein diacetate (CM-H2-DCFDA) (Molecular Probes, Eugene, Oreg.), a chloromethyl derivative of H2-DCFDA, passively diffuses into cells in which it is hydrolyzed by intracellular esterases to liberate 2′-7′-dichlorofluorescein (DCF) which, during reaction with oxidizing species, yields a highly fluorescent compound that is trapped inside the cell. […] Cells were seeded at 1×10^5/well in 96-well plates for one day followed by treatment with 0.6 mM or 1.2 mM VPA for 24 h. The cultures were used for the assay of intracellular ROS.
After washing two times with warm Hank's balanced salt solution (HBSS), CM-H2-DCFDA, diluted to a final concentration of 1 μM in phenol red-free HBSS, was added to cultures and incubated for 30 min at 37° C. Then cultures were added with 0.6 or 1.2 mM VPA in HBSS again for 30 min and followed the treatment with 100 ng/ml LPS for 2 hours at 37° C., fluorescence intensity was measured at 485 nm for excitation and 530 nm for emission using a SpectraMax Gemini XS fluorescence microplate reader (Molecular Devices, Sunnyvale, Calif.).

[3] = tested on: TH-IR (dopaminergic) neurons in mesencephalic neuron-glia cultures; test: TH-IR neuron count and morphology in LPS-treated neuron-glia cultures; format: cell-based, rat; conditions: LPS 5 ng/ml; for concentration of peak protection against LPS-induced DA neuron cell loss: 10^−12-10^−16 M tested; for LPS-induced damage of TH immuno-reactive neurons: 10^−14 M
[4] = tested on: superoxide; test: Superoxide release (SOD-inhibitable cytochrome c reduction) after LPS; format: cell-based, rat; conditions: 10^−14 M, enriched-microglia cultures, LPS 10 ng/ml
Description: The release of superoxide was determined by measuring the superoxide dismutase (SOD)-inhibitable reduction of cytochrome c. To measure the immediate release of superoxide from microglia-enriched or neuron-glia after stimulation, cultures grown in 96-well plates were switched to phenol red-free HBSS (50 μl/well). To each well was added 50 μl of HBSS containing vehicle or DM. The cultures were then incubated at about 37° C. for about 30 min followed by 50 μl of ferricytochrome c (100 μM) in HBSS, with and without 600 U/ml SOD, 50 μl of vehicle or LPS in HBSS. The absorbance at 550 nm was read with a SpectraMax Plus microplate spectrophotometer (Molecular Devices, Sunnyvale, Calif.).
(§3) This example tests whether or not post-treatment with DM is still neuroprotective in LPS-induced neurotoxicity. Neuron-glia co-cultures as prepared in Example 1 were first treated with LPS (20 ng/ml) for twelve hours, and then LPS was removed by removing the media from the cultures and washing twice with PBS. Different concentrations of DM (10^−5, 10^−10, and 10^−14 M) were then added to the cultures and incubation was continued for another 6 or 7 days. The DA uptake and the superoxide production were measured as in Example 1 and 5. Results are expressed as a percentage of the control cultures and are the mean±S.E.M of three to six experiments with triplicates in each experiment. ##, P<0.01 compared with control culture; *, P<0.05 compared with the LPS-treated culture.
Primary enriched-microglia cultures were prepared as in Example 1. […] The intracellular ROS concentrations and superoxide amounts were measured as in Example 5. The data are expressed as the percent of the control cultures and are the mean±SEM of three experiments performed in triplicate. *P<0.05, **P<0.01, compared to control.

[5] = tested on: dopaminergic neurons in rat primary mesencephalic neuron-glia cultures; test: [3H]DA uptake in LPS-treated mesencephalic neuron-glia cultures; format: cell-based; conditions: LPS 5 ng/ml; for concentration of greatest level of protection (DA uptake): 10^−12-10^−16 M tested; for enhancement of [3H]DA uptake after exposure to LPS: 30 min pretreatment, 7 days
Description: Neuron-glia cultures were prepared from the ventral mesencephalic tissues of embryonic day 13-14 Fisher F344 rats or day 12-13 wild-type C57BL/6J (gp91phox^+/+) mice. Dissociated cells were seeded at 1×10^5/well and 5×10^5/well to poly-D-lysine-coated 96-well and 24-well plates, respectively. Cells were maintained at about 37° C. in a humidified atmosphere of 5% CO2 and 95% air, in minimal essential medium (MEM) containing 10% fetal bovine serum (FBS), 10% horse serum (HS), 1 gm/l glucose, 2 mM L-glutamine, 1 mM sodium pyruvate, 100 μM nonessential amino acids, 50 U/ml penicillin, and 50 μg/ml streptomycin. Seven-day-old cultures were used for treatment.
Dextromethorphan (obtained from Sigma-Aldrich (St. Louis, Mo.) as dextromethorphan hydrobromide) was freshly prepared as a stock solution (1 mM) in ddH2O and sterile-filtered right before use. For treatment of the cultures, the DM was serially diluted (10×) with fresh culture medium containing 2% of fetal bovine and horse serum. The neuron-glia cultures were pretreated with 10^−5-10^−17M DM 30 minutes prior to treatment with 10 ng/ml of LPS.
Seven days after treatment, the degeneration of dopaminergic neurons was assessed by [^3H]-dopamine (DA) uptake assays. The [^3H]-DA uptake assays were performed as follows. Cultures were washed twice with warm Krebs-Ringer buffer (KRB, 16 mM sodium phosphate, 119 mM NaCl, 4.7 mM KCl, 1.8 mM CaCl2, 1.2 mM MgSO4, 1.3 mM EDTA, and 5.6 mM glucose; pH7.4) and then incubated for about 20 minutes at about 37° C. with 1 μM [^3H]-DA in KRB in order to allow for the uptake of DA. Afterwards, the cultures were washed (three times) with ice-cold KRB and the cells were collected in 1 N NaOH. Radioactivity was determined by liquid scintillation counting.
as §3, with “5.” for “5. Results are expressed as a percentage of the control cultures and are the mean±S.E.M of three to six experiments with triplicates in each experiment. ##, P<0.01 compared with control culture; *, P<0.05 compared with the LPS-treated culture.”
Neuron-glia cell cultures were prepared as in Example 1, and pretreated with the various peptide fragments of Table 1 (peptide fragments were obtained from BACHEM) for 30 minutes followed by addition of 5 ng/ml of LPS. DA neurotoxicity was measured as an Example 1 at 7 days post treatment.
DA neurotoxicity was measured at 7 days post treatment as in Example 1. Dopaminergic neuronal death was determined at 7 days post treatment using immunocytochemical staining as in Example 2.
Neuron-glia cultures were prepared from the ventral mesencephalic tissues of embryonic day 13-14 rats. Dissociated cells were seeded at 1×10^5/well and 5×10^5/well to poly-D-lysine-coated 96-well and 24-well plates, respectively.

[6] = biological target: T1, gp91/p22 (Homo sapiens, UniProt P04839); test: [3H]naloxone binding to COS-7 cells transfected with gp91/p22; conditions: COS-7 gp91/p22 cells, [3H]naloxone 2 nM, displaced with 10 μM cold naloxone
T1 construct: expressed in transfected cells; host or cells: COS-7 (stably transfected); intact cells or membrane preparations
Description: Binding affinities of naloxone for COS-7 cells transfected with gp91/p22 was determined using either [^3H]-(+)Naloxone or [^3H]-(−)Naloxone (2 nM; PerkinEhner Life Sciences) as ligands and displaced with 10 μM of cold (−) Naloxone in HBBS containing 0.1% (W/V) fatty acids free albumin (lot B22558, Calbiochem). COS-7 cells transfected with gp91/p22 and COS-7 cells that were not transfected (WT) were detached using Versene (1:5000, GibcoBRL, Life technologies). For intact cell assays, after washing twice with HBSS, cells were transferred to micro centrifuge tubes at 10^6 cells per tube.
To acquire membrane preparations, cells were lysed in buffer ([…] Tris, pH=7.4, 2 mM EDTA, 10 μg/ml CLAP) and homogenized. Lysate was transferred to a 50 ml conical tube, where there were centrifuged at 250 g for about 10 minutes at about 4 C. The supernatant was then transferred to another tube and spun at 100,000 G for about 90 minutes. The supernatant was then discarded and the protein pellet was re-suspended in 2 ml of lysis buffer. […]
All competition reactions of either intact cells or membrane preparations were allowed to proceed at 4° C. […] After washing with HBSS four times, the filters were collected and radioactivity retained on the filters was determined by liquid Scintillation counting. All values are expressed as percentages relative to the binding capacity of the wild type control.

[7] = tested on: dopaminergic neurons in PHOX^+/+ and PHOX^−/− mouse neuron-glia cultures; test: [3H]DA uptake in neuron-glia cultures of PHOX+/+ and PHOX−/− mice; format: cell-based; conditions: PHOX−/− cultures, 10^−13-10^−14 M, LPS 5 ng/ml
Description: To further study the role of ROS in DM-elicited neuroprotection, neuron-glia cultures were prepared from NADPH oxidase-deficient (PHOX^−/−) and wild-type (PHOX^+/+) mice.
as §1, §2

[8] = tested on: dopaminergic neurons in rat primary mesencephalic neuron-glia cultures; test: [3H]DA uptake in LPS-treated mesencephalic neuron-glia cultures; format: cell-based; conditions: femtomolar concentrations, LPS 5 ng/ml
[9] = PHOX−/− mice, 30 min pretreatment
[10] = control (PHOX+/+) mice, 10^−14 M

T1 sequence (P04839 whole entry): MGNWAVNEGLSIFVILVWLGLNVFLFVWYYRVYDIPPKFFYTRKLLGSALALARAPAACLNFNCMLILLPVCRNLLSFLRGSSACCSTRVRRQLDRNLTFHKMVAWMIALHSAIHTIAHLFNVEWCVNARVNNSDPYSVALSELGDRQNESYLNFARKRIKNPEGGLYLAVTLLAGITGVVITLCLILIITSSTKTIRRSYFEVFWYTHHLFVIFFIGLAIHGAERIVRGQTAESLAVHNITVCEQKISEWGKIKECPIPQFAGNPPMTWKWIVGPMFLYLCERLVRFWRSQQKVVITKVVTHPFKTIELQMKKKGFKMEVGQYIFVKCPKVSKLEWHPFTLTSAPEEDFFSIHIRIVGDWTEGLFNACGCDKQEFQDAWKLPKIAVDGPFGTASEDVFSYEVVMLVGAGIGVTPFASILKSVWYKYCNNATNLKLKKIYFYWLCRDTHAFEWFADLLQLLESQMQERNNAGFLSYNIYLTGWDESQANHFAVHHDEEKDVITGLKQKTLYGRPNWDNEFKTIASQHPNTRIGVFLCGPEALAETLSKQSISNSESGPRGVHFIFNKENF
T1 sequence (P13498 whole entry partner): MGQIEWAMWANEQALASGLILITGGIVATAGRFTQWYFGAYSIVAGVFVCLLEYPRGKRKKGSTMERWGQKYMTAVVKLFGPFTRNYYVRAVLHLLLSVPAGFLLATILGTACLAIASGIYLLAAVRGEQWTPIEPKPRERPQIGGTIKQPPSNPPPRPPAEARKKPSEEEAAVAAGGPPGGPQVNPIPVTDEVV

| Compound | TNFα reduction in response to LPS [1, 9] | TNFα reduction in response to LPS [1, 10] | reduction of intracellular ROS concentrations [2] | concentration of peak protection against LPS-induced DA neuron cell loss [3] | LPS-induced damage of TH immuno-reactive neurons [3] | microglial superoxide response [4] | concentration of greatest level of protection (DA uptake) [5] | enhancement of [3H]DA uptake after exposure to LPS [5] | binding capacity relative to control COS-7 cells [6] | neuroprotection (DA uptake) [7] | neuroprotection against LPS-induced neurodegeneration [8] |
| --- | --- | --- | --- | --- | --- | --- | --- | --- | --- | --- | --- |
| C=CCN1CC[C@]23c4c5ccc(O)c4O[C@H]2C(=O)CC[C@@]3(O)[C@H]1C5 [naloxone, (5α)-4,5-Epoxy-3,14-dihydroxy-17-(2-propenyl)morphinan-6-one] | failed to show any TNFα reduction | showed a reduction of TNFα | 65% | 10^−14 M | protected TH immuno-reactive neurons from LPS-induced damage | nearly control levels | 10^−14 M | approximately 35% | 150-180% | failed to show neuroprotection | – |
| glycine-glycine-phenylalanine [GGF] | failed to show any TNFα reduction | showed a reduction of TNFα | 65% | 10^−14 M | protected TH immuno-reactive neurons from LPS-induced damage | nearly control levels | 10^−14 M | approximately 35% | – | failed to show neuroprotection | minimal peptide sequence required for neuroprotection |

Source: patent publication US8796302B2 (priority 2004, dated 2014)
